Here are results for four compounds from US11629155B2, “Small molecule antagonist compound TAC5 series having toll-like receptor 3/7/8/9 inhibitory function” (AJOU UNIVERSITY INDUSTRY-ACADEMIC COOPERATION FOUNDATION, priority 2018, dated 2023).

Each structure is given as a SMILES string.

Data set [1] concerns C57BL/6 mice, IMQ-induced psoriasis. Kind of data set: IMQ-induced psoriasis mouse model. In kind it is in vivo. Particulars: FIG. 5F. As to the method: The therapeutic efficacy of TAC5-a was evaluated in a psoriasis mouse model and a SLE mouse model. Psoriasis was induced in 6-7 week old C57BL/6 mice by topically applying 42 mg of IMQ cream (5%) to the shaved back skin of the mice for 6 consecutive days (FIG. 5A). TAC5-a was injected daily at doses of 50, 100 and 200 nmol/g and the effect thereof on severity was analyzed.
Histological analysis and immunochemical staining were performed on skin samples of mouse dorsal lesions. The sample was fixed with 4% paraformaldehyde solution, then embedded in paraffin and cut to 7 μm on a glass slide. The sections were stained with hematoxylin and eosin (H&E) and the thickness of the dermis and epidermis were measured. The thickness of skin was measured with a Leica DMi8 fluorescence microscope using a Leica LAS X Hardware Configurator (Leica Microsystems GmbH, Wetzlar, Germany). IMQ-mediated skin inflammation was evaluated by immunohistochemistry (IHC) using a primary antibody that recognizes CD68 (ab31630, 1:200 dilution) as a macrophage marker. […] The skin was stained with hematoxylin and eosin (H&E) in order to evaluate the thickness of the epidermis (yellow arrow) and dermis (green arrow) in IMQ-induced psoriasis mice and thereby to observe the histopathological changes of skin lesions in each group (FIG. 5G) Immunohistochemical analysis of skin lesions in each group was performed using a primary antibody that recognizes CD68.

The subject of data set [2] is RAW 264.7 cells. The data set is described as follows: MTT assay, cytotoxicity in RAW 264.7 cells. Conditions: FIG. 4B. On the technique in general: Tetrazolium assays rely on reduction of a dye to a coloured formazan, in cell work by metabolically active cells.
Procedure: RAW264.7 cells (ATCC, Manassas, Va., USA), which are mouse macrophages, were cultured in low-glucose DMEM (Thermo Fisher Scientific Inc.) supplemented with 10% FBS, 100 IU/ml penicillin and 100 μg/ml streptomycin in a culture system.
Cytotoxicity in RAW 264.7 cells was tested by treatment with these compounds at a concentration of 12.5 to 50 μM.
The test system of data set [3] is TLR7/8. The data set is described as follows: TLR7/8-mediated IL-6 expression in THP-1 cells. In kind it is cell-based, human. Conditions: FIG. 4C.
Procedure: RAW264.7 cells (ATCC, Manassas, Va., USA), which are mouse macrophages, were cultured in low-glucose DMEM (Thermo Fisher Scientific Inc.) supplemented with 10% FBS, 100 IU/ml penicillin and 100 μg/ml streptomycin in a culture system. Human monocyte THP1 cells were cultured in RPMI 1640 (Thermo Fisher Scientific Inc.) supplemented with 10% FBS, 100 IU/ml penicillin and 100 μg/ml streptomycin and then differentiation thereof into macrophages was induced using 10 nM phorbol 12-myristate 13-acetate (PMA) (Sigma-Aldrich Co. LLC.) for 24 hours. CL075, R848, CpG-ODN and Poly(I:C) were purchased from InvivoGen (San Diego, Calif., USA), and LPS was purchased from Sigma-Aldrich Co. (St. Louis, Mo., USA).
Cytotoxicity in RAW 264.7 cells was tested by treatment with these compounds at a concentration of 12.5 to 50 μM. […] The inhibitory effect of TAC5-a on TLR-mediated signaling was confirmed by measuring TNF-α secretion through ELISA in THP1-derived macrophages. […] In addition, in order to evaluate the antagonistic effect of TAC5-a on endosomal TLR activation, cells were cultured along with this compound in the presence of R848 (TLR7/8) or CL075 (TLR7/8), imiquimod (IMQ; TLR7), TL8 (TLR8), poly(I:C) (TLR3) or CpG ODN (TLR9) (FIGS. 4E, 4F and 4G).

Consider `CN(Cc1cnc2nc(N)nc(N)c2n1)c1ccc(C(=O)N[C@@H](CCC(=O)O)C(=O)O)cc1` [MTX, methotrexate, reference compound], for which, in data set [1], the “thickness of the epidermis and the dermis (H&E)” value is given as “therapeutic effects similar to those of the treatment group were observed”.
As for `c1ccc(COc2cccnc2Nc2ccccc2)cc1` [TAC5-c, 3-(benzyloxy)-N-phenylpyridin-2-amine], the “cytotoxicity at 50 μM” value in data set [2] was “slight cytotoxicity”. The “TLR7/8-mediated IL-6 expression” value in data set [3] is recorded as “inhibited”.
`CCOCC(Oc1cccnc1N)c1ccccc1` (centres unmarked) [TAC5-d, 3-(2-ethoxy-1-phenylethoxy)pyridine-2-amine]: the “TLR7/8-mediated IL-6 expression” value in data set [3] was “inhibited”.
For `NCCOCC(Oc1cccnc1N)c1ccccc1` (centres unmarked) [TAC5-e, 3-(2-(2-aminoethoxy)-1-phenylethoxy)pyridine-2-amine], in data set [3], the “TLR7/8-mediated IL-6 expression” value is “inhibited”.
